From patent EP0383759B1 (Discovery Therapeutics, Inc., priority 1987, dated 1988)
Each block holds one molecule with its values, some of them ahead of it.

Columns and labels:
[1] = target: T1, fat cell A1 receptor (Rattus norvegicus, UniProt P25099); test: antagonism of R-PIA-induced inhibition of isoproterenol-stimulated adenylate cyclase activity in fat cell membranes; type: biochemical; details: result in words
T1 construct: from tissue; host or cells: rat fat cell membranes
T1 sequence (P25099 1-326): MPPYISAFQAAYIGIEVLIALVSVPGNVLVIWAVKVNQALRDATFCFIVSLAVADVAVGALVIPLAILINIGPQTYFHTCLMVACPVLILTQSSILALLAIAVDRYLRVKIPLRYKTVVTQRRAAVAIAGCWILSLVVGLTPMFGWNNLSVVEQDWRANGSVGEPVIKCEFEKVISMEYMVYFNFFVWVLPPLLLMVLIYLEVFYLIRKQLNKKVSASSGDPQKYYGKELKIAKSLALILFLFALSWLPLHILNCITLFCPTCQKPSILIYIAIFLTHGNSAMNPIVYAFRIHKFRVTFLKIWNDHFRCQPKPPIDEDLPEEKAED
Experimental: (§1) Human platelet, rat pheochromocytoma (PC12) cell, rat fat cell and rat cerebral cortex membranes were prepared as described (4,5,6). Adenylate cyclase activity and binding of [^3H]PIA to cerebral cortex membranes were determined essentially as described (4,5,6).
(§2) KB values for the compounds were determined as described (4). […] EC50 and IC50 values for the agonists were obtained from the concentration-response curves by linear regression after logit-log transformation. KB values of the antagonists were calculated using the Schild equation KB = C/(CR-1), where C denotes the concentration of the competitor and CR the ratio of the EC50 and IC50 values in the presence and absence, respectively, of the competitor. IC50 of the compounds for inhibition of [^3H]PIA binding to cerebral cortex membranes were transformed into Ki values as described (6).

[2] = target: T2, A2 receptors of platelets (Homo sapiens, UniProt P29274); test: antagonism of NECA-induced stimulation of adenylate cyclase activity of human platelet membranes; type: biochemical; details: for antagonist potency at the platelet A2 receptor: NECA-induced stimulation of adenylate cyclase, human platelet membranes, result in words
T2 construct: NECA-induced stimulation of adenylate cyclase activity of human platelet membranes; from tissue; host or cells: human platelet membranes
Experimental: as §1, §2
In these cells, A2 receptor-mediated stimulation of adenylate cyclase results in an inhibition of aggregation (5,7).

[3] = target: T3, A1 receptors (Rattus norvegicus, UniProt P25099); test: inhibition of [^3H]PIA binding to rat cerebral cortex membranes; details: result in words
T3 construct: from tissue; host or cells: rat cerebral cortex membranes
T3 sequence (P25099 1-326): T1 sequence (P25099 1-326)
Experimental: as §1, §2

[4] = target: T4, A2 receptors of rat pheochromocytoma (PC12) cells (Rattus norvegicus, UniProt P30543); test: antagonism of NECA-induced stimulation of adenylate cyclase activity of PC12 cell membranes; type: biochemical; details: NECA-stimulated adenylate cyclase, result in words
T4 construct: NECA-induced stimulation of adenylate cyclase activity of the PC12 cells membranes; endogenous in cells; host or cells: rat pheochromocytoma PC12 cell membranes
Experimental: as §1, §2

[5] = target: T5, A1 adenosine receptor (Cavia porcellus, UniProt P47745); test: antagonism of adenosine agonists' reduction in force of contraction of guinea pig atrium; type: cell-based; details: for basal force of contraction in the atria / antagonism at adenosine receptors in the atria: guinea pig atria; for antagonism at adenosine receptors in the atria: result in words
T5 construct: The left atria from male guinea pigs were isolated; from tissue; host or cells: isolated guinea pig left atrium
T5 sequence (P47745 1-326): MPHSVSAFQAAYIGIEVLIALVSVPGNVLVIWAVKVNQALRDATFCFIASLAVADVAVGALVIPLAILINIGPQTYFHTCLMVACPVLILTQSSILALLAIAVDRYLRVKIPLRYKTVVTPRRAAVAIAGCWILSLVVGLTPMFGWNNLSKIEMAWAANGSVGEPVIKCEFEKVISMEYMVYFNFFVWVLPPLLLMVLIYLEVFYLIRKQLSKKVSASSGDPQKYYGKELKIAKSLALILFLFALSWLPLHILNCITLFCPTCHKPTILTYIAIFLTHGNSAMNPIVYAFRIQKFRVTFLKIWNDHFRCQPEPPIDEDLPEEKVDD
Experimental: The left atria from male guinea pigs were isolated, suspended between two punctate electrodes, and placed in a 20 ml organ bath that contained Krebs-Hensileit solution that was continuously gassed with 95% O2 + 5% CO2 and maintained at 31°C. The resting tension was one gram. Theatria were stimulated electrically at 1 hz, 1 ms duration pulses at supramaximal voltage. The force of contraction was recorded isometrically.
(§3) The ability of the compounds to antagonize the effects of agonists was analyzed using modified Schild plots.

[6] = target: T6, A1 or A2 receptors (Rattus norvegicus, UniProt P25099); test: comparison of activity across the A1 and A2 adenosine receptor systems (discussion); type: biochemical; details: test system not specified
T6 sequence (P25099 1-326): T1 sequence (P25099 1-326)
Experimental: as §1, §2

[7] = tested on: heart rate and blood pressure; test: in vivo heart rate and blood pressure in anesthetized rats after adenosine or NECA; details: urethan-anesthetized rats
Description: Drug injections were made intravenously through a jugular cannula.

[8] = tested on: A2-adenosine receptors; test: antagonism of adenosine agonists' decrease in contractile tone of guinea pig taenia caecum; type: cell-based; details: result in words
Experimental: The tissues were suspended in a 20 ml organ bath containing de Jalon's solution that was gassed with 95% O2 + 5% CO2 and maintained at 31°C. The resting tension was 1.5 g. The contractile response was measured isotonically.
as §3

[9] = tested on: A1 or A2 receptors; test: comparison of activity across the A1 and A2 adenosine receptor systems (discussion); type: biochemical; details: result in words
Experimental: as §1, §2

[10] = affinity constants, guinea pig left atria, modified Schild plots

T4 sequence (P30543 whole entry): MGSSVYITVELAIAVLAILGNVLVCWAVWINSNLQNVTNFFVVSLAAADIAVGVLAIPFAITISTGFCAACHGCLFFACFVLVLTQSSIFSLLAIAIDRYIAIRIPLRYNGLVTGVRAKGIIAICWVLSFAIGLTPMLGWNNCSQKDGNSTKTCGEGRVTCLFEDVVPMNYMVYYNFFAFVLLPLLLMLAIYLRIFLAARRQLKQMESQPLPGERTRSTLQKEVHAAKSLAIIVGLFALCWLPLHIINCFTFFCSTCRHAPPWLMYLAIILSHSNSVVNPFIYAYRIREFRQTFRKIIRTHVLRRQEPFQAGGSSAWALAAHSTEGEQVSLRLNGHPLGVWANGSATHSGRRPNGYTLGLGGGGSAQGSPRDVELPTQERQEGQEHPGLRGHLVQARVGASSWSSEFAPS
T2 sequence (P29274 whole entry): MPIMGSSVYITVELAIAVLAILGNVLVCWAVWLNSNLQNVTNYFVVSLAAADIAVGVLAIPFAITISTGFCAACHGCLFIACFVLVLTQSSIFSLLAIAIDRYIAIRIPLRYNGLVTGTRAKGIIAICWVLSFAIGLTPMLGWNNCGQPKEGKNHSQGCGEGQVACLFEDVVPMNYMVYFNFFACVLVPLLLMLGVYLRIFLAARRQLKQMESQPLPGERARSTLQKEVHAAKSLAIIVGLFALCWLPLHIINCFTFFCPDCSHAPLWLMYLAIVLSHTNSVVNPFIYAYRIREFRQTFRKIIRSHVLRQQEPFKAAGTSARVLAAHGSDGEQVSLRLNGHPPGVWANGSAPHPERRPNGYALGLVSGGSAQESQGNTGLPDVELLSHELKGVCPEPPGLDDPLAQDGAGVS

pKB [5, 10]: 5.36 ± 0.1
basal force of contraction in the atria [5]: produced increases
antagonism at adenosine receptors in the atria [5]: competitive antagonists
Molecule: N^6-4-(-2-thienyl) -3-butyl) -9-MA [Example 23]

antagonistic potency at the fat cell A1 receptor [1]: more potent than 9-methyladenine itself
Molecule: Cn1cnc2c(NCCc3ccsc3)ncnc21 [N^6-2-(3-thienylethyl)-9-methyladenine]

antagonistic potency at the fat cell A1 receptor [1]: more potent than the parent compound
Molecule: C[C@@H](Cc1ccccc1)Nc1ncnc2c1ncn2C [Example 17, N^6-S-1-Phenyl-2-propyl-9-MA]

antagonist potency at the platelet A2 receptor [2]: somewhat more potent
Molecule: Cn1cnc2c(NCCc3ccsc3)ncnc21 [Example 15, N^6-2-(3-thienylethyl)-9-methyladenine]

antagonist potency at the platelet A2 receptor [2]: less potent than 9-methyladenine
Molecule: Cn1cnc2c(NCCc3cccnc3)ncnc21 [Example 14, N^6-2-(3-pyridylethyl)-9-methyladenine]

antagonistic potency at the fat cell A1 receptor [1]: more potent than the parent compound
antagonist potency at the platelet A2 receptor [2]: more potent than the S-isomer
Ki-values for inhibition of [^3H]PIA binding [3]: more potent than the S-isomer
Molecule: C[C@H](Cc1ccccc1)Nc1ncnc2c1ncn2C [Example 16, N^6-R-1-Phenyl-2-propyl-9-MA]

antagonist potency at the platelet A2 receptor [2]: as potent as 9-methyladenine
Ki-values for inhibition of [^3H]PIA binding [3]: very weak antagonists
Molecule: COc1cc(CCNc2ncnc3c2ncn3C)cc(OC)c1OC [Example 13, N^6-2-(3,4,5-trimethoxyphenylethyl)-9-methyladenine]

antagonism at adenosine receptors in the atria [5]: competitive antagonists
antagonism at adenosine receptors in the atria ([5]; listed as Ex. 22): the most potent antagonist
antagonism of the effects of adenosine agonists in relaxing the taenia caecum [8]: did not competitively antagonize
Molecule: Cn1cnc2c(N[C@H]3C[C@H]4CC[C@@H]3C4)ncnc21 (relative stereo) [Example 22, N^6-(endonorbornyl)-9-methyladenine]
NECA-induced decrease in blood pressure ([7]; prior administration): minimally affecting
effects of NECA on the heart ([7]; prior administration): attenuated

Second part, the molecule before the results:

Molecule: Nc1ncnc2nc[nH]c12 [Example 1, Adenine, reference compound]
antagonistic potency at the fat cell A1 receptor [1]: does not affect
antagonist potency at the platelet A2 receptor [2]: very weak antagonist
basal adenylate cyclase activity ([2]; human platelets, data not shown): does not affect
Ki-values for inhibition of [^3H]PIA binding [3]: low potency
antagonist potency at the A2 receptor of PC12 cells [4]: very weak antagonist

Molecule: Cn1cnc2c(NC3CCC3)ncnc21 [Example 3, N^6-Cyclobutyl-9-MA]
antagonistic potency at the fat cell A1 receptor [1]: more potent than the parent compound
antagonist potency at the platelet A2 receptor [2]: more potent than 9-methyladenine itself
activity at A1 receptors [6]: the most potent of N^6-substituted 9-methyladenines at A1 receptors

Molecule: Cn1cnc2c(NC3(C)CCCC3)ncnc21 [Example 5, N^6-1-methylcyclopentyl-9-methyladenine]
antagonistic potency at the fat cell A1 receptor [1]: less potent than the N^6-cyclopentyl analog
antagonist potency at the platelet A2 receptor [2]: less potent than the parent cyclopentyl analog
antagonist potency at the A2 receptor of PC12 cells [4]: reduces potency
activity at A1 receptors [6]: reduces activity at A1 receptors

Molecule: CNc1ncnc2c1ncn2C [Example 7, N^6-Methyl-9-MA]
antagonistic potency at the fat cell A1 receptor [1]: less potent than 9-methyladenine
antagonist potency at the platelet A2 receptor [2]: much less potent than 9-methyladenine

Molecule: Cn1cnc2c(N[C@@H]3C[C@@H]4CC[C@H]3C4)ncnc21 (relative stereo) [N^6-(endonorbornyl)-9-methyladenine]
effects of subsequently administered adenosine on blood pressure, heart rate and P-R interval ([7]; intravenous): attenuated
heart block caused by adenosine at high doses ([7]; intravenous): substantially reduced

Molecule: Cn1c(=O)c2[nH]c(-c3ccccc3)nc2n(C)c1=O [Example 8-PT, 8-phenyltheophylline, reference compound]
antagonism of the effects of adenosine agonists in relaxing the taenia caecum [8]: did antagonize the effects of agonists at low concentrations

Molecule: CCC(CC)Nc1ncnc2c1ncn2C [Example 8, N^6-3-pentyl-9-methyladenine]
antagonistic potency at the fat cell A1 receptor [1]: more potent than the parent compound
Kb [5, 10]: 3.98 µM
basal force of contraction in the atria [5]: produced increases
antagonism at adenosine receptors in the atria [5]: competitive antagonists
antagonist potency at the platelet A2 receptor [2]: more potent
antagonist potency at the A2 receptor of PC12 cells [4]: more potent at the platelet A2 receptor than at the PC12 A2 receptor
antagonism of the effects of adenosine agonists in relaxing the taenia caecum [8]: did not competitively antagonize

Molecule: Cn1cnc2c(NCCc3ccccc3)ncnc21 [Example 12, N^6-2-Phenethyl-9-MA]
antagonistic potency at the fat cell A1 receptor [1]: much less potent
antagonist potency at the platelet A2 receptor [2]: less potent than 9-methyladenine
Ki-values for inhibition of [^3H]PIA binding [3]: very weak antagonists

Molecule: COc1cc(CCNc2ncnc3c2ncn3C)cc(OC)c1OC
selectivity for A1 or A2 receptors [9]: selectivity for A2 receptors

Molecule: Cn1cnc2c(NC3CCCC3)ncnc21 [Example 4, N^6-cyclopentyl-9-methyladenine]
antagonistic potency at the fat cell A1 receptor [1]: more potent than the parent compound
Kb [5, 10]: 0.676 µM
antagonism at adenosine receptors in the atria [5]: competitive antagonists
antagonist potency at the platelet A2 receptor [2]: more potent than 9-methyladenine itself
Ki-values for inhibition of [^3H]PIA binding [3]: more potent than the N^6-methylcyclopentyl analog
antagonist potency at the A2 receptor of PC12 cells [4]: more potent at the platelet A2 receptor than at the PC12 A2 receptor
antagonism of the effects of adenosine agonists in relaxing the taenia caecum [8]: did not competitively antagonize
activity at A1 receptors [6]: the most potent of N^6-substituted 9-methyladenines at A1 receptors

Molecule: Cn1cnc2c(Nc3ccccc3)ncnc21 [Example 9, N^6-Phenyl-9-MA]
antagonistic potency at the fat cell A1 receptor [1]: more potent than 9-methyladenine
antagonist potency at the platelet A2 receptor [2]: equipotent to 9-methyladenine
antagonist potency at the A2 receptor of PC12 cells [4]: more potent at the platelet A2 receptor than at the PC12 A2 receptor

Molecule: Cn1cnc2c(N)ncnc21 [Example 2, 9-methyladenine, reference compound]
antagonistic potency at the fat cell A1 receptor [1]: antagonizes the effect of R-PIA
antagonist potency at the platelet A2 receptor [2]: more potent than the adenine itself
Ki-values for inhibition of [^3H]PIA binding [3]: equally potent at A1 receptors of fat cells and cerebral cortex
antagonist potency at the A2 receptor of PC12 cells [4]: equally potent at A2 receptors of human platelets and rat PC12 cells

Molecule: Cn1cnc2c(NCc3ccccc3)ncnc21 [Example 11, N^6-benzyl-9-methyladenine]
antagonist potency at the platelet A2 receptor [2]: less potent than 9-methyladenine
activity at A1 receptors [6]: modest activity

Molecule: Cn1cnc2c(Nc3ccccc3F)ncnc21 [Example 10, N^6-2-Fluorophenyl-9-MA]
antagonistic potency at the fat cell A1 receptor [1]: more potent than 9-methyladenine
antagonist potency at the platelet A2 receptor [2]: increases potency

Molecule: Cn1cnc2c(NC3CCCCC3)ncnc21 [Example 6, N^6-Cyclohexyl-9-MA]
antagonistic potency at the fat cell A1 receptor [1]: more potent than the parent compound
antagonist potency at the platelet A2 receptor [2]: more potent than 9-methyladenine itself
activity at A1 receptors [6]: the most potent of N^6-substituted 9-methyladenines at A1 receptors
